Assay results taken from patent US20100179203A1, “NOVEL PYRAZOLE DERIVATIVES USEFUL AS POTASSIUM CHANNEL MODULATORS” (priority 2007, published 2010).

What was measured:
BK channels = target: T1, BK channels (Homo sapiens, UniProt Q12791); assay: BK channel opening activity, two-electrode voltage clamp in Xenopus laevis oocytes; format: cell-based
T1 construct: expressed in transfected cells; host or cells: Xenopus laevis oocytes
Method: In this example the BK channel opening activity of Compound 9 (FIGS. 1A and 1B) is determined using BK channels heterologously expressed in Xenopus laevis oocytes.
The electrical current through the BK channel was measured using conventional two-electrode voltage clamp. BK currents were activated by repeating ramp protocols. In brief, the membrane potential was continuously changed from −120 mV to +120 mV within a 2 s period. The threshold for BK activation is approximately +30 mV under control conditions. Compounds were applied for 100 s during which the ramp protocol was repeated 10 times with 10 s intervals. In between the ramp protocols the membrane potential was clamped at −80 mV. The first three compound applications were control blanks where the current level is allowed to stabilize.
In order to evaluate the ability of the compounds to shift the BK activation curve towards lower membrane potentials, the BK current was transformed into conductance by using Ohm's law […], where g is the conductance, I is the current, Ememb is the membrane potential and Erev is the reversal potential. The extracellular solution for these experiments contained 2.5 mM K+ and the intracellular K+ concentration of an oocyte was estimated to be 100 mM. Under those conditions, Nernst equation predicts a reversal potential of Erev=−93.2 mV. The control conductance level at a membrane potential of +100 mV was calculated, and the compound effect was evaluated as the potential difference, ΔV, to the membrane potential at which the same conductance level was obtained in the presence of compound.
The concentration response curve for this potential difference was fitted to the sigmoidal logistic equation: ΔV=ΔVmax/(1+(EC50/[compound])^n), where ΔVmax represents the maximal left shift of the BK activation curve, EC50 is the concentration causing a half maximal response, and n is the slope coefficient.

T1 sequence (Q12791 whole entry): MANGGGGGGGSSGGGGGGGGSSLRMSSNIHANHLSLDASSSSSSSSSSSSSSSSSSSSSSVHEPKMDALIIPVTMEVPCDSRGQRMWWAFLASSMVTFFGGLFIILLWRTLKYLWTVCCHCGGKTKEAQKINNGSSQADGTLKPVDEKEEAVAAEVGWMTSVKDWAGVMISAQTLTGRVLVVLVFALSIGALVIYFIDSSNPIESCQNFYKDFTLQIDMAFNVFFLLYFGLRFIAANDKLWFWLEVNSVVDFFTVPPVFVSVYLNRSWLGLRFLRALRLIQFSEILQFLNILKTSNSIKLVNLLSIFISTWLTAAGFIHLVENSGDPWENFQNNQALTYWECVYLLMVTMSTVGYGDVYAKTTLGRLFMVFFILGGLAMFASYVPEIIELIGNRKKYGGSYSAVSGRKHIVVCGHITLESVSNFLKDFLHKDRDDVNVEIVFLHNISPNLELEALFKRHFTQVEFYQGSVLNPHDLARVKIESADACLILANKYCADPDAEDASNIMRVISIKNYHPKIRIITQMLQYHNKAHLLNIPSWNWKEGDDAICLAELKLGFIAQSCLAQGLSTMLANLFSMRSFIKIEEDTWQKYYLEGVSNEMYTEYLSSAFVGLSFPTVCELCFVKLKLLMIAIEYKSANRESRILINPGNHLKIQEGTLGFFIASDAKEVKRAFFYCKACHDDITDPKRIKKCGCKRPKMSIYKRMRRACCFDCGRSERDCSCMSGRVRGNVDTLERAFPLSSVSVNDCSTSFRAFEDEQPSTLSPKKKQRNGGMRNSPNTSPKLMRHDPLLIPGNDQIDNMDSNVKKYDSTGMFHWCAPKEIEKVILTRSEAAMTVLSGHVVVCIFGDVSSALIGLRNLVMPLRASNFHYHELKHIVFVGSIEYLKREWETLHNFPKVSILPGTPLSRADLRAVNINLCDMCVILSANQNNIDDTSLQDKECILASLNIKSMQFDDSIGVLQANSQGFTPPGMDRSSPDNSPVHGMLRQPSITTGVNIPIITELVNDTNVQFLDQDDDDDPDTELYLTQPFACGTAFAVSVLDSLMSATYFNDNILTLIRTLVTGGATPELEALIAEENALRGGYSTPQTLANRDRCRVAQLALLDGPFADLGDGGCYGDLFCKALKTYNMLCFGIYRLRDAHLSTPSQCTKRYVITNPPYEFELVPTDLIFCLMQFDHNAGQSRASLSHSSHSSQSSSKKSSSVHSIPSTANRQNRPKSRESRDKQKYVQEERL

| melting point [°C] | Compound | other results |
| --- | --- | --- |
| 240.2 to 241.3 | COc1ccc(-n2cc(/C=C/C(=O)O)c(-c3ccc(Cl)c(F)c3)n2)cc1Cl [Compound 3, (E)-3-[3-(4-Chloro-3-fluoro-phenyl)-1-(3-chloro-4-methoxy-phenyl)-1H-pyrazol-4-yl]-acrylic acid] |  |
| 128.4 to 130 | COc1ccc(-n2cc(/C=C/c3nnn[nH]3)c(-c3ccc(Cl)c(F)c3)n2)cc1Cl [Compound 5, 5-{(E)-2-[3-(4-Chloro-3-fluorophenyl)-1-(3-chloro-4-methoxy-phenyl)-1H-pyrazol-4-yl]-vinyl}-1H-tetrazole] |  |
| 269.3 to 270.5 | COc1ccc(-n2cc(/C=C/C(=O)NS(C)(=O)=O)c(-c3ccc(Cl)c(F)c3)n2)cc1Cl [Compound 6, N-{(E)-3-[3-(4-Chloro-3-fluoro-phenyl)-1-(3-chloro-4-methoxy-phenyl)-1H-pyrazol-4-yl]-acryloyl}-methanesulfonamide] |  |
|  | Clc1ccc(-c2nn(-c3ccc(Br)cc3)cc2CCc2nnn[nH]2)cc1 [Compound 9, 5-{2-[1-(4-Bromo-phenyl)-3-(4-chloro-phenyl)-1H-pyrazol-4-yl]-ethyl}-1H-tetrazole] | EC50 (BK channels; BK channels heterologously expressed in Xenopus laevis oocytes, ramp -120 to +120 mV, 0.01-31.6 μM, fit of ΔV vs concentration, read-out: EC50 for the left-shift of the BK activation curve): 1400 nM; ΔVmax, maximal left shift of the BK activation curve (BK channels; BK channels heterologously expressed in Xenopus laevis oocytes, ΔV referred to control conductance at +100 mV, 0.01-31.6 μM): −96 mV; BK current level at depolarizing potentials (BK channels; increasing concentrations (0.01-31.6 μM) applied, Xenopus laevis oocytes): marked increase in the current level |
| 282.8 to 284.2 | COc1ccc(-n2cc(/C=C(\C#N)C(=O)O)c(-c3ccc(Cl)c(F)c3)n2)cc1Cl [Compound 14, (E)-3-[3-(4-Chloro-3-fluoro-phenyl)-1-(3-chloro-4-methoxy-phenyl)-1H-pyrazol-4-yl]-2-cyano-acrylic acid] |  |
| 200 to 201 | O=c1[nH]c(Cc2cn(-c3cc(C(F)(F)F)cc(C(F)(F)F)c3)nc2-c2cccc(Cl)c2)no1 [Compound 17, 3-[1-(3,5-Bis-trifluoromethyl-phenyl)-3-(3-chloro-phenyl)-1H-pyrazol-4-ylmethyl]-4H-[1,2,4]oxadiazol-5-one] |  |
| 216.8 to 218.2 | COc1ccc(-n2cc(CC(=O)NS(C)(=O)=O)c(-c3ccc(Cl)c(F)c3)n2)cc1Cl [Compound 18, N-{2-[3-(4-Chloro-3-fluorophenyl)-1-(3-chloro-4-methoxy-phenyl)-1H-pyrazol-4-yl]-acetyl}-methanesulfonamide] |  |
